Results: patent US4195171A, “Derivatives of an antibiotic XK-62-2 and process for the production thereof” (Abbott Laboratories, priority 1975, dated 1980)
In brackets after ≈: the same amount, converted by molar mass. Like-named read-outs stand apart in the source and are kept apart here.

Tests used:
[1] = test system: Pseudomonas aeruginosa KY 8563; experiment: Antibacterial spectrum, MIC by agar dilution method; type: cell-based
Source text: (§1) XK-62-2, 1-N-[L-(-)-α-hydroxy-γ-aminobutyryl] XK-62-2, Compounds (I-1), (I-2), (II-1) and (II-2) against various Gram-negative and Gram-positive bacteria determined by agar dilution method at pH 7.2.
^7 produces gentamicin acetyltransferase Type III

Serratia sp T-55 = experiment: as above; type: cell-based
Source text: as §1

Proteus rettgeri KY 4288 = experiment: as above; type: cell-based; details: Providencia rettgeri, KY4288, pH 7.2, read-out: Minimum Inhibitory Concentration
Source text: as §1

Proteus mirabilis 1287 = experiment: as above; type: cell-based; details: pH 7.2, read-out: Minimum Inhibitory Concentration
Source text: as §1

Escherichia coli Juhl = experiment: as above; type: cell-based; details: pH 7.2, read-out: Minimum Inhibitory Concentration
Source text: as §1

[2] = test system: Pseudomonas aeruginosa No. 12; experiment: as above; type: cell-based; details: pH 7.2, read-out: Minimum Inhibitory Concentration
Source text: as §1

[3] = test system: Shigella sonnei ATCC 9290; experiment: as above; type: cell-based; details: ATCC9290, pH 7.2, read-out: Minimum Inhibitory Concentration
Source text: as §1

[4] = test system: Streptococcus faecalis ATCC 10541; experiment: as above; type: cell-based; details: Enterococcus faecalis, ATCC10541, pH 7.2, read-out: Minimum Inhibitory Concentration
Source text: as §1

Sarcina lutea ATCC 9341 = experiment: as above; type: cell-based; details: Micrococcus luteus, ATCC9341, pH 7.2, read-out: Minimum Inhibitory Concentration
Source text: as §1

[5] = test system: Staphylococcus aureus 209 P; experiment: as above; type: cell-based; details: pH 7.2, read-out: Minimum Inhibitory Concentration
Source text: as §1

[6] = test system: Pseudomonas aeruginosa BMH 1; experiment: as above; type: cell-based; details: BMH1, pH 7.2, read-out: Minimum Inhibitory Concentration
Source text: as §1

[7] = Acute toxicity (LD50) in mice; details: mouse, in vivo, route not stated
Source text: XK-62-2, Compounds (I-2), (II-1) and (II-2) in mice.

[8] = KY8563, agar dilution, pH 7.2, strain produces gentamicin acetyltransferase Type III, read-out: Minimum Inhibitory Concentration
[9] = T55, agar dilution, pH 7.2, read-out: Minimum Inhibitory Concentration
[10] = KY8563, pH 7.2, read-out: Minimum Inhibitory Concentration

Structure (SMILES) | MIC [1, 8] | MIC (Serratia sp T-55; [9]) | MIC (Proteus rettgeri KY 4288) | MIC (Proteus mirabilis 1287) | MIC (Escherichia coli Juhl; agar dilution) | MIC [2] | MIC [3] | MIC [4] | MIC (Sarcina lutea ATCC 9341) | MIC [5] | MIC [6] | LD50 [7] | MIC (Escherichia coli Juhl) | MIC [1, 10] | MIC (Serratia sp T-55; T55, pH 7.2, read-out: Minimum Inhibitory Concentration)
CNCC1CCC(N)C(OC2C(N)CC(NC(=O)C(O)CCN)C(OC3OCC(C)(O)C(NC)C3O)C2O)O1 (single isomer, unassigned) [1-N-[L-(-)-α-hydroxy-γ-aminobutyryl] XK-62-2, reference compound] | 6.25 µg/mL (≈ 11.1 µM) | 0.78 µg/mL (≈ 1.38 µM) | 0.78 µg/mL (≈ 1.38 µM) | 12.5 µg/mL (≈ 22.1 µM) | 0.4 µg/mL (≈ 0.708 µM) | 0.4 µg/mL (≈ 0.708 µM) | 0.78 µg/mL (≈ 1.38 µM) | 6.25 µg/mL (≈ 11.1 µM) | 0.2 µg/mL (≈ 0.354 µM) | 0.4 µg/mL (≈ 0.708 µM) | 0.78 µg/mL (≈ 1.38 µM) | 180 mg/kg | – | – | –
CC1(O)COC(OC2C(NC(=O)C(O)CCN)CC(N)C(OC3OC(CN)CCC3N)C2O)C(O)C1N (single isomer, unassigned) [Compound I-2, 3"-N, 6'-N-didemethyl-1-N-[L-(-)-α-hydroxy-γ-aminobutyryl] XK-62-2] | 3.12 µg/mL (≈ 5.81 µM) | 3.12 µg/mL (≈ 5.81 µM) | 0.78 µg/mL (≈ 1.45 µM) | 12.5 µg/mL (≈ 23.3 µM) | – | 0.4 µg/mL (≈ 0.745 µM) | 1.56 µg/mL (≈ 2.91 µM) | 12.5 µg/mL (≈ 23.3 µM) | 0.78 µg/mL (≈ 1.45 µM) | 0.2 µg/mL (≈ 0.373 µM) | 0.78 µg/mL (≈ 1.45 µM) | 200 mg/kg | 1.56 µg/mL (≈ 2.91 µM) | – | –
CNCC1CCC(N)C(OC2C(N)CC(NC(=O)C(O)CN)C(OC3OCC(C)(O)C(N)C3O)C2O)O1 (racemic) [II-1, 3"-N-demethyl-1-N-(DL-α-hydroxy-β-aminopropionyl) XK-62-2] | – | 1.56 µg/mL (≈ 2.91 µM) | 1.56 µg/mL (≈ 2.91 µM) | 25 µg/mL (≈ 46.6 µM) | – | 0.78 µg/mL (≈ 1.45 µM) | 3.12 µg/mL (≈ 5.81 µM) | 25 µg/mL (≈ 46.6 µM) | 1.56 µg/mL (≈ 2.91 µM) | 0.4 µg/mL (≈ 0.745 µM) | 1.56 µg/mL (≈ 2.91 µM) | 175 mg/kg | 3.12 µg/mL (≈ 5.81 µM) | 3.12 µg/mL (≈ 5.81 µM) | –
CC1(O)COC(OC2C(NC(=O)C(O)CN)CC(N)C(OC3OC(CN)CCC3N)C2O)C(O)C1N (racemic) [Compound I-1, 3"-N, 6'-N-didemethyl-1-N-(DL-α-hydroxy-β-aminopropionyl) XK-62-2] | 1.56 µg/mL (≈ 2.99 µM) | – | 0.78 µg/mL (≈ 1.49 µM) | 12.5 µg/mL (≈ 23.9 µM) | 1.56 µg/mL (≈ 2.99 µM) | 0.4 µg/mL (≈ 0.765 µM) | 3.12 µg/mL (≈ 5.97 µM) | 12.5 µg/mL (≈ 23.9 µM) | 0.78 µg/mL (≈ 1.49 µM) | 0.2 µg/mL (≈ 0.383 µM) | 0.78 µg/mL (≈ 1.49 µM) | – | – | – | 3.12 µg/mL (≈ 5.97 µM)
CNCC1CCC(N)C(OC2C(N)CC(NC(=O)C(O)CCN)C(OC3OCC(C)(O)C(N)C3O)C2O)O1 (single isomer, unassigned) [II-2, 3"-N-demethyl-1-N-[L-(-)-α-hydroxy-γ-aminobutyryl] XK-62-2] | – | 1.56 µg/mL (≈ 2.83 µM) | 0.78 µg/mL (≈ 1.42 µM) | 12.5 µg/mL (≈ 22.7 µM) | 1.56 µg/mL (≈ 2.83 µM) | 0.78 µg/mL (≈ 1.42 µM) | 3.12 µg/mL (≈ 5.67 µM) | 25 µg/mL (≈ 45.4 µM) | 1.56 µg/mL (≈ 2.83 µM) | 0.4 µg/mL (≈ 0.726 µM) | 1.56 µg/mL (≈ 2.83 µM) | 250 mg/kg | – | 3.12 µg/mL (≈ 5.67 µM) | –
CNCC1CCC(N)C(OC2C(N)CC(NC(=O)C(O)CN)C(OC3OCC(C)(O)C(NC)C3O)C2O)O1 (racemic) [1-N-(DL-α-hydroxy-β-aminopropionyl) XK-62-2, reference compound] | 3.12 µg/mL (≈ 5.67 µM) | 1.56 µg/mL (≈ 2.83 µM) | 1.56 µg/mL (≈ 2.83 µM) | 12.5 µg/mL (≈ 22.7 µM) | 0.78 µg/mL (≈ 1.42 µM) | 0.78 µg/mL (≈ 1.42 µM) | 0.78 µg/mL (≈ 1.42 µM) | 12.5 µg/mL (≈ 22.7 µM) | 0.4 µg/mL (≈ 0.726 µM) | 0.4 µg/mL (≈ 0.726 µM) | 1.56 µg/mL (≈ 2.83 µM) | 185 mg/kg | – | – | –
